Reference: ChEMBL document CHEMBL5705899 (Biochem J, 2014)
Active and inactive are the calls of the source.

How the values were obtained:
[1] = target: Calcium/calmodulin-dependent protein kinase type II subunit alpha (Homo sapiens) (UniProt Q9UQM7); test: Inhibition of human CAMK2A at 1 uM using RBER-CHKtide as substrate in presence of 33P-ATP by ProQinase assay
[2] = target: ALK tyrosine kinase receptor (Homo sapiens) (UniProt Q9UM73); test: Inhibition of human GST/His-tagged ALK at 1 uM using polyEY as substrate in presence of 33P-ATP by ProQinase assay
[3] = target: Death-associated protein kinase 2 (Homo sapiens) (UniProt Q9UIK4); test: Inhibition of human DAPK2 at 1 uM using RB-S6P as substrate in presence of 33P-ATP by ProQinase assay
[4] = target: Insulin receptor-related protein (Homo sapiens) (UniProt P14616); test: Inhibition of human INSRR at 1 uM using poly(Ala,Glu,Lys,Tyr) as substrate in presence of 33P-ATP by ProQinase assay
[5] = target: T1, 3-phosphoinositide-dependent protein kinase 1 (Homo sapiens) (UniProt O15530); test: Inhibition of human PDK1 at 1 uM using bio-4xCHKT as substrate in presence of 33P-ATP by ProQinase assay
T1 sequence (whole entry): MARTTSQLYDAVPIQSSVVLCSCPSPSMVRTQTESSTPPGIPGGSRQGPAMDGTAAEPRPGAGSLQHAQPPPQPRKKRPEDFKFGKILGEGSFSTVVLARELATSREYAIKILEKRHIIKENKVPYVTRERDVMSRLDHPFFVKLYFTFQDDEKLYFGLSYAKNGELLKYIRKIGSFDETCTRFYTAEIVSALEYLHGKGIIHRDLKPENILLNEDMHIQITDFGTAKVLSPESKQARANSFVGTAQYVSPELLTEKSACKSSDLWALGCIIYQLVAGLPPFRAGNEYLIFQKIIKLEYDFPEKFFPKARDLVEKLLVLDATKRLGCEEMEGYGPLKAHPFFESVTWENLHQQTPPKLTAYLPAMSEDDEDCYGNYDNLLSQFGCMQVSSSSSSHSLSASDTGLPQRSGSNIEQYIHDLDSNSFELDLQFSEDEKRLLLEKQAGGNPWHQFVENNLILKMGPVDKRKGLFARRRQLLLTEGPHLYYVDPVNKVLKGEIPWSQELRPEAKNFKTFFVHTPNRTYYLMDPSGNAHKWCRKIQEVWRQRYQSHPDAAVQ

[6] = target: Protein kinase C beta type (Homo sapiens) (UniProt P05771); test: Inhibition of human PKCbeta2 at 1 uM using 3xChocktide-PKC as substrate in presence of 33P-ATP by ProQinase assay
[7] = target: Diacylglycerol kinase zeta (Homo sapiens) (UniProt Q13574); test: Inhibition of recombinant human N-terminal His6-tagged DGKzeta (1 to 929 residues) expressed in baculovirus expression system at 1 uM using diacyl-glycerol as substrate incubated for 40 mins by ADP-Glo assay
[8] = target: Aurora kinase A (Homo sapiens) (UniProt O14965); test: Inhibition of human AuroraA at 1 uM using bio-4xCHKT as substrate in presence of 33P-ATP by ProQinase assay
[9] = target: Macrophage-stimulating protein receptor (Homo sapiens) (UniProt Q04912); test: Inhibition of human RON at 1 uM using polyEY as substrate in presence of 33P-ATP by ProQinase assay
[10] = target: Serine/threonine-protein kinase TAO3 (Homo sapiens) (UniProt Q9H2K8); test: Inhibition of human TAOK3 at 1 uM using 3xChocktide-PKC as substrate in presence of 33P-ATP by ProQinase assay
[11] = target: Rhodopsin kinase GRK7 (Homo sapiens) (UniProt Q8WTQ7); test: Inhibition of human GRK7 at 1 uM using casein as substrate in presence of 33P-ATP by ProQinase assay
[12] = target: Serine/threonine-protein kinase D2 (Homo sapiens) (UniProt Q9BZL6); test: Inhibition of human PRKD2 at 1 uM using RBER-CHKtide as substrate in presence of 33P-ATP by ProQinase assay
[13] = target: Serine/threonine-protein kinase PAK 1 (Homo sapiens) (UniProt Q13153); test: Inhibition of human PAK1 at 1 uM using RBER-CHKtide as substrate in presence of 33P-ATP by ProQinase assay
[14] = target: Serine/threonine-protein kinase PLK3 (Homo sapiens) (UniProt Q9H4B4); test: Inhibition of human PLK3 at 1 uM using casein as substrate in presence of 33P-ATP by ProQinase assay
[15] = target: Protein kinase C beta type (Homo sapiens) (UniProt P05771); test: Inhibition of human PKCbeta1 at 1 uM using 3xChocktide-PKC as substrate in presence of 33P-ATP by ProQinase assay
[16] = target: RAC-beta serine/threonine-protein kinase (Homo sapiens) (UniProt P31751); test: Inhibition of human AKT2 at 1 uM using RBER-GSK3 as substrate in presence of 33P-ATP by ProQinase assay
[17] = target: Ribosomal protein S6 kinase alpha-2 (Homo sapiens) (UniProt Q15349); test: Inhibition of human RPS6KA2 at 1 uM using bio-4xCHKT as substrate in presence of 33P-ATP by ProQinase assay
[18] = target: Eukaryotic elongation factor 2 kinase (Homo sapiens) (UniProt O00418); test: Inhibition of recombinant human N-terminal GST-tagged EF2K (2 to 725 residues) expressed in Escherichia coli assessed as remaining activity at 1 uM using RKKFGESKTKTKEFL as substrate incubated for 30 mins in presence of [gamma-33P]ATP by filter binding method relative to control
[19] = target: Tyrosine-protein kinase receptor UFO (Homo sapiens) (UniProt P30530); test: Inhibition of human AXL at 1 uM using polyEy as substrate in presence of 33P-ATP by ProQinase assay
[20] = target: Serine/threonine-protein kinase 24 (Homo sapiens) (UniProt Q9Y6E0); test: Inhibition of recombinant human N-terminal GST-tagged MST3 (1 to 431 residues) expressed in baculovirus infected Sf21 cells assessed as remaining activity at 1 uM using MBP as substrate incubated for 30 mins in presence of [gamma-33P]ATP by filter binding method relative to control
[21] = target: Wee1-like protein kinase (Homo sapiens) (UniProt P30291); test: Inhibition of human WEE1 at 1 uM using poly(Ala,Glu,Lys,Tyr) as substrate in presence of 33P-ATP by ProQinase assay
[22] = target: Inhibitor of nuclear factor kappa-B kinase subunit beta (Homo sapiens) (UniProt O14920); test: Inhibition of recombinant human N-terminal His6-tagged IKKbeta (1 to 736 residues) expressed in baculovirus infected Sf21 cells assessed as remaining activity at 1 uM using LDDRHDSGLDSMKDEEY as substrate incubated for 30 mins in presence of [gamma-33P]ATP by filter binding method relative to control
[23] = target: Cyclin-Y/Cyclin-dependent kinase 16 (Homo sapiens) (UniProt Q00536+Q8ND76); test: Inhibition of human PCTAIRE1/CyclinY at 1 uM using RBER-GSK3 as substrate in presence of 33P-ATP by ProQinase assay; format: protein-complex assay

Chain of Protein kinase C beta type (Homo sapiens) (P05771 2-671 limits assumed): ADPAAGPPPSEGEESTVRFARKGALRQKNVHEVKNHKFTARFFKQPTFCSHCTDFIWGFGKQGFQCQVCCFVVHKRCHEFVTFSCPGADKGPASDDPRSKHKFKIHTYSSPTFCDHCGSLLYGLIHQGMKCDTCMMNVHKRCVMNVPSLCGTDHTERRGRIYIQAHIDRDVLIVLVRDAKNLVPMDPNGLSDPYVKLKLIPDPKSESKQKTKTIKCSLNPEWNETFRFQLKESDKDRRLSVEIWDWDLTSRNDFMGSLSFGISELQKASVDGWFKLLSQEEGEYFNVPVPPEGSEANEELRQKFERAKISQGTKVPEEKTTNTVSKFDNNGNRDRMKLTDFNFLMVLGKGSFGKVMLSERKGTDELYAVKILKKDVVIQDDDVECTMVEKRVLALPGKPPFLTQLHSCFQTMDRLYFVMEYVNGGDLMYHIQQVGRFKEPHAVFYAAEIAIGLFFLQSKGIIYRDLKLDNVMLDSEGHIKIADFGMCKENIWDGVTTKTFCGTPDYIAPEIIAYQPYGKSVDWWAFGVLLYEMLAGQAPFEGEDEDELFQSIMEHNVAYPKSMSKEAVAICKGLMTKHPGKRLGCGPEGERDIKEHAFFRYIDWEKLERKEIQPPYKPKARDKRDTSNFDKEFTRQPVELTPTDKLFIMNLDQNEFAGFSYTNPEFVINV
Chain of Aurora kinase A (Homo sapiens) (O14965 whole entry): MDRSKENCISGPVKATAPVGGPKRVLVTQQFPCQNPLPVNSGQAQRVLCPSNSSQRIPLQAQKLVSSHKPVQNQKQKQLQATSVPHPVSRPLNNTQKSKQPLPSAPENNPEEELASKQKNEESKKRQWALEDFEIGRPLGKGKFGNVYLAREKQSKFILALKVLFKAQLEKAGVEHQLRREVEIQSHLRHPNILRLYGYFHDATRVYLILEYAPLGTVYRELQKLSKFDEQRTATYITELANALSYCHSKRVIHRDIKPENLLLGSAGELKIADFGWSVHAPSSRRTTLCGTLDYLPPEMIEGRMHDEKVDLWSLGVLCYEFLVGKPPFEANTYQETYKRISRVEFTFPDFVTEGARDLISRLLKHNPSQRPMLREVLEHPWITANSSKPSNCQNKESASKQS
Chain of RAC-beta serine/threonine-protein kinase (Homo sapiens) (P31751 whole entry): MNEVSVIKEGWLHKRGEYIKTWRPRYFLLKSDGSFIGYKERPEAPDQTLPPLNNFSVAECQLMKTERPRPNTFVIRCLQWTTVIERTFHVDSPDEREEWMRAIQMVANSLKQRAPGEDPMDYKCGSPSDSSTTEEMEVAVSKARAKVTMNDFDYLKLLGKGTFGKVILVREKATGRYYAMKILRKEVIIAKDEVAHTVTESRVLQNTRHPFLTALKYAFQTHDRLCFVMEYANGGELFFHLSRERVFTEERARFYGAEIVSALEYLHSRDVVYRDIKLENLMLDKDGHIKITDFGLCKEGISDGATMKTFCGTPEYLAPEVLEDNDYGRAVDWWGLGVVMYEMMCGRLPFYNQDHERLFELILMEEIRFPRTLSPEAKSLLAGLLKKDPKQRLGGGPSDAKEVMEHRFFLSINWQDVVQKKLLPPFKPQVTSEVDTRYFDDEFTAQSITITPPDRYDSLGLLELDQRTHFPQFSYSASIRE
Chain of Death-associated protein kinase 2 (Homo sapiens) (Q9UIK4 whole entry, looked up): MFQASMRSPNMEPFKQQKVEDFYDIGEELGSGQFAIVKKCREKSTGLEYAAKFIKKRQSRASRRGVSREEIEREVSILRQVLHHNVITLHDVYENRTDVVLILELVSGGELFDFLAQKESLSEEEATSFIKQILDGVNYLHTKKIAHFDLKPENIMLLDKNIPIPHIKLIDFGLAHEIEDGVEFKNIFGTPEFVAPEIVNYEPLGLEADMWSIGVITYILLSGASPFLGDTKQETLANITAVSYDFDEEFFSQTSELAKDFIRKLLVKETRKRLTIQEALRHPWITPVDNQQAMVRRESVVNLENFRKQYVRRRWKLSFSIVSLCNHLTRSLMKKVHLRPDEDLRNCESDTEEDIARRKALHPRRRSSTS
Chain of Serine/threonine-protein kinase TAO3 (Homo sapiens) (Q9H2K8 whole entry): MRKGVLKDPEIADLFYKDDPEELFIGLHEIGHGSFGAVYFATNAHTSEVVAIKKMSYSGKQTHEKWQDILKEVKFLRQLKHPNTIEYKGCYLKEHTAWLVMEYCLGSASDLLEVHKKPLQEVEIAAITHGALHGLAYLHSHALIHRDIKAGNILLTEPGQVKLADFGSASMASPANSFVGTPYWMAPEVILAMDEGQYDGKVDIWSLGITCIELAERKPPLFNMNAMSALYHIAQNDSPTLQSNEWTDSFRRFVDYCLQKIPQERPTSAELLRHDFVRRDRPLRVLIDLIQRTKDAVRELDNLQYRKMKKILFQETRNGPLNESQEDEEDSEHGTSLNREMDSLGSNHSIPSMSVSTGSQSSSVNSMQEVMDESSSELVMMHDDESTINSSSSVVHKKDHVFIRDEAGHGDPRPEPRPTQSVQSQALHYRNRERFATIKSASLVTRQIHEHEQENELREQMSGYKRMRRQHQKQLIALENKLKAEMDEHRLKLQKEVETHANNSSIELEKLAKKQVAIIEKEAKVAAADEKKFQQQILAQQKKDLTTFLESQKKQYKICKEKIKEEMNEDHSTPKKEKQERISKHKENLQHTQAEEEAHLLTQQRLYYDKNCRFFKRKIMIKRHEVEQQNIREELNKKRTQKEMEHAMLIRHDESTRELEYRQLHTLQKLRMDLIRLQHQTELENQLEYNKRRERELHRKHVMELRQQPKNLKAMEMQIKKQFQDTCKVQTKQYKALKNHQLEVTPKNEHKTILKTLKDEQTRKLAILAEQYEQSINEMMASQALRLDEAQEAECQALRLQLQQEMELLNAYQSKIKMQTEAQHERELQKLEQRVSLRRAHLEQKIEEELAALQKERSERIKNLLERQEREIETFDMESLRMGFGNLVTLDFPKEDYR
Chain of Tyrosine-protein kinase receptor UFO (Homo sapiens) (P30530 whole entry, the tested form may be a part): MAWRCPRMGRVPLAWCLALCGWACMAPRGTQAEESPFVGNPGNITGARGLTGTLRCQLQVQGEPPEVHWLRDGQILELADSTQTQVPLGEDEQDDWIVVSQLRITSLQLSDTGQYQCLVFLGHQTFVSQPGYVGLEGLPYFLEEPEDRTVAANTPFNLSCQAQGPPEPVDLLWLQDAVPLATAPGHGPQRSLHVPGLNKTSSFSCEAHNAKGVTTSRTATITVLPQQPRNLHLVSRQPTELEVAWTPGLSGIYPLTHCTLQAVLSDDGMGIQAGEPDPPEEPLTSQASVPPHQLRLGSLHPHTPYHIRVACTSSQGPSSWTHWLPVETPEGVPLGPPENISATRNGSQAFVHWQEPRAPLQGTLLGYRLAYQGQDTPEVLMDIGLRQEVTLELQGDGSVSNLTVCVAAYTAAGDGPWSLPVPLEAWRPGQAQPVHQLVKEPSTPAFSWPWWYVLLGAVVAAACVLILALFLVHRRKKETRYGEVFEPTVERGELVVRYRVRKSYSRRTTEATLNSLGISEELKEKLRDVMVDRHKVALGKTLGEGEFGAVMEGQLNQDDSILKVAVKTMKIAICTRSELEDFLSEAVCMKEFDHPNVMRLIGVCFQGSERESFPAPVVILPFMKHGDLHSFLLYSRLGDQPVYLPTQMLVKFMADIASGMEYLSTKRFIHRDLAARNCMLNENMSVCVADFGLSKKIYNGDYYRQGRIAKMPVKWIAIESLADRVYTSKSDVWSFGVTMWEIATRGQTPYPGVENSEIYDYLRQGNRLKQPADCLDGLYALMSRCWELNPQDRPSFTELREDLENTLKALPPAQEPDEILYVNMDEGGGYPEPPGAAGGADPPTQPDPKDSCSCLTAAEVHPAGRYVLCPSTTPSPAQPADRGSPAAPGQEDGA
Chain of Serine/threonine-protein kinase PLK3 (Homo sapiens) (Q9H4B4 whole entry, looked up): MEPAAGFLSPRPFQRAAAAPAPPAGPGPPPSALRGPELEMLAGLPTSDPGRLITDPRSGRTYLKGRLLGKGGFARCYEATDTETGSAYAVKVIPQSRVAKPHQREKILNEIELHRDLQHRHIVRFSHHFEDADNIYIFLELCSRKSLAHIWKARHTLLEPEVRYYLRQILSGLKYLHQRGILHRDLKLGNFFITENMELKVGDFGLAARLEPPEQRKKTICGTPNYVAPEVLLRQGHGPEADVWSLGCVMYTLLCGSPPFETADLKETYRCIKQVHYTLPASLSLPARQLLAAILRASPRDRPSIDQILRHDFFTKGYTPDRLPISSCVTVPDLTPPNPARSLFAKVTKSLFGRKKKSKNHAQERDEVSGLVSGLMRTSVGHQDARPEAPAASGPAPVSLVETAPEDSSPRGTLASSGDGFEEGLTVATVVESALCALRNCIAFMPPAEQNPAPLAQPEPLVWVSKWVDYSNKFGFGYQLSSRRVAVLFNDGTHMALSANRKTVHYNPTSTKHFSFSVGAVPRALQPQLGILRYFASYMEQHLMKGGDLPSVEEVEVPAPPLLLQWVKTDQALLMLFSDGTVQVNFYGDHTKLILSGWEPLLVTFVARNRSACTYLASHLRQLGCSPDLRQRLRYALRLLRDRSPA
Chain of Serine/threonine-protein kinase PAK 1 (Homo sapiens) (Q13153 whole entry): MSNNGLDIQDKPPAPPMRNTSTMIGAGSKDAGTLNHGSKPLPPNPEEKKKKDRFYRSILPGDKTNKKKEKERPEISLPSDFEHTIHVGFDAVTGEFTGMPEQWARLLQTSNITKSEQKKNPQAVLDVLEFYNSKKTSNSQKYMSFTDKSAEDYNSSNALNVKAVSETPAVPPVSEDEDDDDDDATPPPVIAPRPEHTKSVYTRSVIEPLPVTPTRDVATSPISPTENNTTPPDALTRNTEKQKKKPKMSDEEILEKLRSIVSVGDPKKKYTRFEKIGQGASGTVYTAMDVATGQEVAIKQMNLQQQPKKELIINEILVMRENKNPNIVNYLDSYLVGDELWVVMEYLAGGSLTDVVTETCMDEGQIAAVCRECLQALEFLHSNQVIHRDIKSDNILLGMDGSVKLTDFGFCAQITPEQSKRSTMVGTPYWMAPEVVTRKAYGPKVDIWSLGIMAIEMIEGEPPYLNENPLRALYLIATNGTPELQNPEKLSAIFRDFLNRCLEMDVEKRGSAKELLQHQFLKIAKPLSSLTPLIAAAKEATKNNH

CC(C)(O)CNc1ncc(-c2ccnc(Nc3ccnc(Cl)c3)n2)c(CC2CC2)n1
inactive: inhibition [1] | inhibition [2] | inhibition [3] | inhibition [4] | inhibition [5] | inhibition [6] | inhibition [7] | inhibition [8] | inhibition [9] | inhibition [10] | inhibition [11] | inhibition [12] | inhibition [13] | inhibition [14] | inhibition [15] | inhibition [16] | inhibition [17] | inhibition [19] | inhibition [21] | inhibition [23]
115%: Activity [18]
118%: Activity [20]
106%: Activity [22]
